Measurements taken from paper PMC3288074, “Structural and Functional Analysis of Validoxylamine A 7′-phosphate Synthase ValL Involved in Validamycin A Biosynthesis” (PLoS ONE, 2012).

Tests used:
ValL = target: T1, ValL (Streptomyces hygroscopicus, UniProt H2K885); assay: X-ray crystallography (co-crystal, […] Å); format: binding; details: product analog; active site between N- and C-terminal domains; 5 mM trehalose incubated, 30% trehalose in cryoprotectant; pH 8.5, MgCl2; SeMet protein
T1 construct: dimer; selenomethionine-labelled for the 3T7D data set
T1 sequence (H2K885 1-497): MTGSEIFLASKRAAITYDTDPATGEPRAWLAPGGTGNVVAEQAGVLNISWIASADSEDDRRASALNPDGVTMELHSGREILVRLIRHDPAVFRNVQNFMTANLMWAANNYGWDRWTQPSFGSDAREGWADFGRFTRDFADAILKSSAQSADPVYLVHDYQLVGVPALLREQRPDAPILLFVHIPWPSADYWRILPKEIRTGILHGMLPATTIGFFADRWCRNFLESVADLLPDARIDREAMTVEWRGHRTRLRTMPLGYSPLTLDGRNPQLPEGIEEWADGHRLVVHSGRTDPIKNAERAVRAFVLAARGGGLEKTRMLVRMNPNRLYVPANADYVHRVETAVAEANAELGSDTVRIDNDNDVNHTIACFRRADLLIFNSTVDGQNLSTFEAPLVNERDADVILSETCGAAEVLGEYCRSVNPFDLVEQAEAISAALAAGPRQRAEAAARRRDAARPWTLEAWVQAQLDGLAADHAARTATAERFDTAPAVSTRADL

[1] = target: the molecule itself; assay: dynamic scattering; in solution; data not shown; conditions not given

Molecule: OC[C@H]1O[C@H](O[C@H]2O[C@H](CO)[C@@H](O)[C@H](O)[C@H]2O)[C@H](O)[C@@H](O)[C@@H]1O [trehalose]
- X-ray crystallography (co-crystal, 1.7 Å) (ValL): The co-crystallization of ValL/trehalose led to the determination of ValL/trehalose complex structure.

B1: Validoxylamine A 7'-phosphate synthase ValL (enzyme)
chain: TGSEIFLASKRAAITYDTDPATGEPRAWLAPGGTGNVVAEQAGVLNISWIASADSEDDRRASALNPDGVTMELHSGREILVRLIRHDPAVFRNVQNFMTANLMWAANNYGWDRWTQPSFGSDAREGWADFGRFTRDFADAILKSSAQSADPVYLVHDYQLVGVPALLREQRPDAPILLFVHIPWPSADYWRILPKEIRTGILHGMLPATTIGFFADRWCRNFLESVADLLPDARIDREAMTVEWRGHRTRLRTMPLGYSPLTLDGRNPQLPEGIEEWADGHRLVVHSGRTDPIKNAERAVRAFVLAARGGGLEKTRMLVRMNPNRLYVPANADYVHRVETAVAEANAELGSDTVRIDNDNDVNHTIACFRRADLLIFNSTVDGQNLSTFEAPLVNERDADVILSETCGAAEVLGEYCRSVNPFDLVEQAEAISAALAAGPRQRAEAAARRRDAARPWTLEAWVQAQLDGLAADHAARTATAERFDTAPAVSTRADL
notes: ValL, validoxylamine A 7'-phosphate synthase of the validamycin A gene cluster of Streptomyces hygroscopicus var. jinggangensis 5008; the encoded protein has 497 aa; gene valL cloned into pET28a between EcoRI and BamHI sites; Removal of the tag is not mentioned; The ValL/trehalose structure (3T7D) was obtained from selenomethionine-labelled ValL; the apo structure (3T5T) from native ValL; also …
- stoichiometry N [1]: 2
